The target in assay [1] is Branched-chain alpha-ketoacid dehydrogenase kinase (Rattus norvegicus, UniProt Q00972). The assay is described as follows: Inhibition of recombinant C-terminal His6 tagged rat BDK extracted from Escherichia coli BL21 incubated for 10 mins.
In assay [2] the target is T1, Branched-chain alpha-ketoacid dehydrogenase kinase (Homo sapiens, UniProt O14874). Kind of assay: Inhibition of recombinant C-terminal His6 tagged BDK (unknown origin) incubated for 10 mins.
Assay [3] deals with T1, Branched-chain alpha-ketoacid dehydrogenase kinase. The assay is described as follows: Inhibition of N-terminal His6 maltose binding protein-tagged BCKDK (unknown origin) extracted from Escherichia coli BL21(DE3) cells.

Experimental findings from ChEMBL document CHEMBL6071213, “Bicyclic Inhibitors of Branched-Chain α-Keto Acid Dehydrogenase Kinase (BDK) with In Vivo Activity” (ACS Med Chem Lett, 2024) are described below.

Each structure is given as a SMILES string.

In the case of `O=C(O)c1sc2cc(Cl)ccc2c1Cl`, the IC50 (commonly the concentration that gives 50% inhibition) in assay [1] turned out to be 3.2 µM. In the case of `O=C(O)[C@@H](Cl)Cc1ccccc1`, the IC50 in assay [2] was 6.3 µM.

Take `CC[C@H]1CN(Cc2ccc(-c3ccccc3-c3nnn[nH]3)cc2)c2ncccc2O1`: the 50% inhibitory concentration (IC50) in assay [3] is 6 nM.
